In PMC12296639, “Synthesis and Bioactivity Investigation of Novel 2-({2-[(Dialkylamino) Methyl] Quinazolin-4-one-3-yl} Methyl) Benzonitrile Derivatives as Dipeptidyl Peptidase-4 Inhibitory Agent” (Iranian Journal of Pharmaceutical Research : IJPR, 2025):

Target: T1, DPP-4 (Homo sapiens, UniProt P27487)
T1 construct: purchased MAK203
Assay: in vitro DPP-4 inhibitory activity assay (DPP-4 inhibitor screening kit MAK203)
Type: biochemical
Conditions: fluorescence assay kit, 37°C; IC50 from linear equation of inhibition % vs concentration
Method: The in vitro DPP-4 inhibitory activity of the prepared compounds was evaluated using the DPP-4 inhibitor screening kit (MAK203) according to the test protocol with slight modifications ([17]). […] Substrate solutions (25 μL) were added to each well, covered, and incubated at 37°C for 30 minutes. […] The following formula was used to calculate the percent inhibition (Equation 1):
Inhibition %= (initial activity-inhibitor activity)/initial activity×100 %
The IC50 value was calculated from y = a + bx (linear equation) obtained from the relation of the inhibition activity (%) (y) and the concentration (x) of the substance being measured.

T1 sequence (P27487 whole entry): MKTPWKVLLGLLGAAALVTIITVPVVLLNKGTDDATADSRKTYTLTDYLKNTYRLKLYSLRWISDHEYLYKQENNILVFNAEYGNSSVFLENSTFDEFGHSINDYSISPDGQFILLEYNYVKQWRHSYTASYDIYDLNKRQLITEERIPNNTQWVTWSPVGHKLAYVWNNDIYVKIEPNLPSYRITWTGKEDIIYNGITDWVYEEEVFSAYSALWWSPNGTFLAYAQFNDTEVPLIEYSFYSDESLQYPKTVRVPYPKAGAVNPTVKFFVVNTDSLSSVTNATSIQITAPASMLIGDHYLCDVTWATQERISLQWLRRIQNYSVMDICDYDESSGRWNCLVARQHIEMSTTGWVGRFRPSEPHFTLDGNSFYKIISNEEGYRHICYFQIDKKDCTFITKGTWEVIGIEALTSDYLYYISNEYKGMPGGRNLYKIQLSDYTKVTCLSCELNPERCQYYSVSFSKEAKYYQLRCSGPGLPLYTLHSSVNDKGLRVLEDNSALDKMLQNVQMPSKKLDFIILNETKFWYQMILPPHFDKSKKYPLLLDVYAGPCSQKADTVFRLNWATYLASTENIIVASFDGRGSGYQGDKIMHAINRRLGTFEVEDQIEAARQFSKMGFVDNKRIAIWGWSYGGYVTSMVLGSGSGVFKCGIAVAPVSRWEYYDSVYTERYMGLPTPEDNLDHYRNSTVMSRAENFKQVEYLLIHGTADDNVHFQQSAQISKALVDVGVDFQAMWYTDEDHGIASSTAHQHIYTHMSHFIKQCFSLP

SMILES	IC50 [µM]
CCN(CC)Cc1nc2ccccc2c(=O)n1Cc1ccccc1C#N [5b, 2-({2-[Diethylaminomethyl]quinazolin-4-one-3-yl}methyl)benzonitrile]	5.29
CCCCN(CCCC)Cc1nc2ccccc2c(=O)n1Cc1ccccc1C#N [5c, 2-({2-[Dibutylaminomethyl]quinazolin-4-one-3-yl}methyl)benzonitrile]	6.78
CN(C)Cc1nc2ccccc2c(=O)n1Cc1ccccc1C#N [5a, 2-({2-[Dimethylaminomethyl]quinazolin-4-one-3-yl}methyl)benzonitrile]	4.92

Next, values leading:

IC50 [µM]	SMILES
1.46	N#Cc1ccccc1Cn1c(CN2CCOCC2)nc2ccccc2c1=O [5d, 2-({2-[Morpholinomethyl]quinazolin-4-one-3-yl}methyl)benzonitrile]
3.07	N#Cc1ccccc1Cn1c(CN2CCCC2)nc2ccccc2c1=O [5e, 2-({2-[Pyrrolidinomethyl]quinazolin-4-one-3-yl}methyl)benzonitrile]
3.56	CN1CCN(Cc2nc3ccccc3c(=O)n2Cc2ccccc2C#N)CC1 [5f, 2-({2-[N-methylpiperazinomethyl]quinazolin-4-one-3-yl}methyl)benzonitrile]
